From ChEMBL document CHEMBL6121037, “Screening, Discovery, and Optimization of the Natural Antitubercular Chlorflavonin from a Marine-Derived Fungal Library” (J Nat Prod, 2025) come the findings set out here.

Where a name gives a salt, the structure may show the parent alone. Activity calls are given as the source filed them. The rule behind the calls is not given here.

Assay [1] relates to A549. The assay can be described thus: Cytotoxicity against human A549 cells at 20 uM by MTT assay. The assay is classed as functional, cell-based. A general note: Formazan colour is commonly taken as a measure of viable cells.
For a further assay, the system named is Staphylococcus aureus. As to the kind of experiment: Antibacterial activity against Staphylococcus aureus assessed as reduction in microbial growth at 25 ug/ml incubated for 24 hrs. The assay is classed as functional, organism-based. Particulars: dose 25.0 µg/ml.
Assay [2] relates to Mycobacterium tuberculosis. As to the kind of experiment: Antitubercular activity against Mycobacterium tuberculosis H37Ra assessed as reduction in microbial growth. The assay is classed as functional.
For the next assay, the system named is Mycobacterium marinum. The assay can be described thus: Antibacterial activity against Mycobacterium marinum assessed as reduction in microbial growth at 100 ug/ml. Particulars: dose 100.0 µg/ml. In kind it is functional, organism-based.
Assay [3] deals with A549. As to the kind of experiment: Cytotoxicity against human A549 cells by MTT assay. In kind it is functional, cell-based.

In the case of `COc1ccc(/C=C/C(=O)Oc2c(Cl)cccc2-c2oc3c(OC)c(OC)cc(O)c3c(=O)c2OC)cc1`, the outcome in the assay on A549 [1], in the assay on Staphylococcus aureus and in the assay with Mycobacterium marinum was inactive. Further, in assay [2], the MIC90 – broadly, the lowest concentration that inhibits either 90% of growth or 90% of the strains tested, depending on the study – stood at 1.9 µM.
For the compound `COc1cc(/C=C/C(=O)Oc2c(Cl)cccc2-c2oc3c(OC)c(OC)cc(O)c3c(=O)c2OC)cc(OC)c1OC`, the result in the assay with A549 [1], with Staphylococcus aureus and in the assay with Mycobacterium marinum was inactive. For the same compound, the MIC90 in assay [2] was determined as 1.7 µM.
For `NNC(=O)c1ccncc1` [ISONIAZID], the outcome with Staphylococcus aureus and with Mycobacterium marinum was inactive. Further, the MIC90 in assay [2] was found to be 0.3 µM.
With `COc1cc(O)c2c(=O)c(OC)c(-c3cccc(Cl)c3OC(=O)/C=C/c3ccccc3Cl)oc2c1OC`, the result with A549 [1], with Staphylococcus aureus and in the assay with Mycobacterium marinum was inactive. In assay [2], the MIC90 is 0.7 µM.
As to `COc1cccc2c1C(=O)c1c(O)c3c(c(O)c1C2=O)C[C@@](O)(C(=O)CO)C[C@@H]3O[C@H]1C[C@H](N)[C@H](O)[C@H](C)O1` [DOXORUBICIN HYDROCHLORIDE], half-maximal inhibition with A549 [3] (IC50) was put at 0.25 µM.
On to `COc1cc(O)c2c(=O)c(OC)c(-c3cccc(Cl)c3OC(=O)/C=C/c3ccsc3)oc2c1OC`, for which the outcome in the assay on A549 [1], in the assay with Staphylococcus aureus and in the assay with Mycobacterium marinum was inactive. Further, in assay [2], the MIC90 was found to be 1.9 µM.
As to `COc1cc(C(=O)Oc2c(Cl)cccc2-c2oc3c(OC)c(OC)cc(O)c3c(=O)c2OC)cc(OC)c1OC`, the result in the assay on A549 [1], with Staphylococcus aureus and in the assay on Mycobacterium marinum was inactive. Besides, the MIC90 in assay [2] came to 1.8 µM.
`COc1cc(O)c2c(=O)c(OC)c(-c3cccc(Cl)c3OC(=O)/C=C/c3ccc(C(F)(F)F)cc3)oc2c1OC`: the result in the assay with A549 [1], in the assay on Staphylococcus aureus and with Mycobacterium marinum was inactive. Besides, the MIC90 in assay [2] came out at 1.7 µM.
`COc1cc(O)c2c(=O)c(OC)c(-c3cccc(Cl)c3OC(=O)/C=C/c3ccc(C)cc3)oc2c1OC`: the result in the assay with A549 [1], with Staphylococcus aureus and in the assay with Mycobacterium marinum was inactive. For the same compound, the MIC90 in assay [2] came to 1.9 µM.
As to `COc1cc(O)c2c(=O)c(OC)c(-c3cccc(Cl)c3OC(=O)/C=C/c3cccnc3)oc2c1OC`, the outcome with A549 [1], in the assay on Staphylococcus aureus and in the assay with Mycobacterium marinum was inactive. In addition, the MIC90 in assay [2] was determined as 2 µM.
In the case of `COc1cc(O)c2c(=O)c(OC)c(-c3cccc(Cl)c3OC(=O)/C=C/c3ccccc3)oc2c1OC`, the result in the assay on A549 [1], in the assay with Staphylococcus aureus and in the assay with Mycobacterium marinum was inactive. In addition, the MIC90 in assay [2] came to 2 µM.
`COc1cc(O)c2c(=O)c(OC)c(-c3cccc(Br)c3O)oc2c1OC`: in assay [2], the MIC90 amounted to 1.2 µM.
Take `COc1cc(O)c2c(=O)c(OC)c(-c3cccc(Cl)c3OC(=O)/C=C/c3cccc(Cl)c3)oc2c1OC`: the result in the assay on A549 [1], in the assay with Staphylococcus aureus and with Mycobacterium marinum was inactive. Also, the MIC90 in assay [2] is 0.9 µM.
`COc1ccc(C(=O)Oc2c(Cl)cccc2-c2oc3c(OC)c(OC)cc(O)c3c(=O)c2OC)cc1`: the outcome in the assay on A549 [1], in the assay on Staphylococcus aureus and in the assay with Mycobacterium marinum was inactive. For the same compound, in assay [2], the MIC90 was 2 µM.
Consider `COc1cc(OC(=O)c2ccccc2)c2c(=O)c(OC)c(-c3cccc(Cl)c3OC(=O)c3ccccc3)oc2c1OC`, for which the result in the assay with A549 [1], in the assay with Staphylococcus aureus and with Mycobacterium marinum was inactive. For the same compound, the MIC90 in assay [2] came to 1.7 µM.
On to `COc1cc(O)c2c(=O)c(OC)c(-c3cccc(Cl)c3OC(=O)c3cccc(N)c3)oc2c1OC`, for which the result in the assay with A549 [1], in the assay on Staphylococcus aureus and in the assay with Mycobacterium marinum was inactive. Also, the MIC90 in assay [2] worked out at 2 µM.
`COc1cc(O)c2c(=O)c(OC)c(-c3cccc(Cl)c3OC(=O)c3cccnc3)oc2c1OC`: the outcome in the assay on A549 [1], in the assay with Staphylococcus aureus and in the assay with Mycobacterium marinum was inactive. In addition, in assay [2], the MIC90 was 2.1 µM.
On to `COc1cc(O)c2c(=O)c(OC)c(-c3cccc(Cl)c3OCc3ccc(C(C)(C)C)cc3)oc2c1OC`, for which the outcome with A549 [1], with Staphylococcus aureus and in the assay on Mycobacterium marinum was inactive.
Consider `COc1c(Br)c(O)c2c(=O)c(OC)c(-c3cc(Br)cc(Cl)c3O)oc2c1OC`, for which the outcome in the assay with A549 [1], with Staphylococcus aureus and with Mycobacterium marinum was inactive.
For the compound `COc1cc(OC(=O)/C=C/c2ccc(C(F)(F)F)cc2)c2c(=O)c(OC)c(-c3cccc(Cl)c3OC(=O)/C=C/c3ccc(C(F)(F)F)cc3)oc2c1OC`, the result in the assay on A549 [1], in the assay on Staphylococcus aureus and in the assay on Mycobacterium marinum was inactive.
`COc1cc(OC(=O)c2cccc(F)c2)c2c(=O)c(OC)c(-c3cccc(Cl)c3OC(=O)c3cccc(F)c3)oc2c1OC`: the result in the assay with A549 [1], in the assay on Staphylococcus aureus and in the assay with Mycobacterium marinum was inactive. The MIC90 in assay [2] was found to be 1.6 µM.
On to `COc1cc(O)c2c(=O)c(OC)c(-c3cccc(Cl)c3O)oc2c1OC`, for which the result in the assay with A549 [1], in the assay on Staphylococcus aureus and in the assay with Mycobacterium marinum was inactive. For the same compound, the MIC90 in assay [2] is 2.6 µM.
Consider `COc1cc(O)c2c(=O)c(OC)c(-c3cccc(Cl)c3OC(=O)c3ccccc3)oc2c1OC`, for which the result with A549 [1], with Staphylococcus aureus and with Mycobacterium marinum was inactive. Also, the MIC90 in assay [2] came out at 1 µM.
`COc1cc(O)c2c(=O)c(OC)c(-c3cccc(Cl)c3OC(=O)c3cccc(Cl)c3)oc2c1OC`: the result in the assay with A549 [1], in the assay on Staphylococcus aureus and with Mycobacterium marinum was inactive. In assay [2], the MIC90 came out at 1.9 µM.
For `COc1cc(OC(=O)c2cccs2)c2c(=O)c(OC)c(-c3cccc(Cl)c3OC(=O)c3cccs3)oc2c1OC`, the result in the assay on A549 [1], with Staphylococcus aureus and in the assay on Mycobacterium marinum was inactive.
Take `COc1cc(O)c2c(=O)c(OC)c(-c3cccc(Cl)c3OC(=O)c3cccc(Br)c3)oc2c1OC`: the result with A549 [1], with Staphylococcus aureus and in the assay on Mycobacterium marinum was inactive. Besides, in assay [2], the MIC90 worked out at 1.8 µM.
